Measured values: ChEMBL document CHEMBL1132749, “Synthesis and antiproliferative evaluation of 7-aminosubstituted pyrroloiminoquinone derivatives” (Bioorg Med Chem Lett, 2000)

How the values were obtained:
L1210 [1] = test: The compound was evaluated in vitro for its antiproliferative activity against the murine L1210 leukemia cell; type: functional, cell-based; details: Mus musculus
L1210 [2] = test: Effect of compound on cellular cycle of L1210 leukemia cell; non specific; type: functional, cell-based; details: Mus musculus

| IC50 (L1210 [1]) | SMILES | Effect (L1210 [2]) |
| --- | --- | --- |
| 2100 nM | O=C1C(NCCc2ccc(O)cc2)=CC2=NCCc3c[nH]c1c32 | non specific |
| 300 nM | CN(C)CCNC1=CC2=NCCc3c[nH]c(c32)C1=O | non specific |
| 5300 nM | O=C1C(NCCc2c[nH]c3ccccc23)=CC2=NCCc3c[nH]c1c32 | non specific |
| 380 nM | O=C1C(NCCN2CCCC2)=CC2=NCCc3c[nH]c1c32 | non specific |
| 250 nM | NC1=CC2=NCCc3c[nH]c(c32)C1=O [MAKALUVAMINE I] | non specific |
